Like-named read-outs stand apart in the source and are kept apart here.
Assays:
[1] = system: asynchronous 3D7-A10 parasite cultures; experiment: Standard 72-h exposure asexual blood stage susceptibility assay (IC50^72h); format: cell-based, Plasmodium falciparum; details: Plasmodium falciparum, 3D7, 72 h, read-out: Overall (72hr assay) Mean IC50 (IC50^72h)
[2] = system: Plasmodium falciparum 3D7-A10 parasites; experiment: Stage specificity assay (8-h exposure of synchronized stages, IC50^8h); format: cell-based; details: Plasmodium falciparum
[3] = system: 3D7-MR4 trophozoite parasite-infected RBCs; experiment: Metabolomic profiling (hydrophilic metabolite changes, UHPLC-MS); format: cell-based, Plasmodium falciparum

`O=C(Nc1ccc(N2CCNCC2)cc1)c1ccn2ncc(-c3cccc(Cl)c3)c2n1.O=C(O)C(F)(F)F` [MMV022478] was tested, and the IC50 [1] was 0.0111 µM, the IC50 ([2]; 3D7, 8 h, read-out: IC50^8h values at all tested stages, 8-h exposures, all asexual blood stages) was over 1 µM and the IC50 ([2]; 3D7, read-out: Early rings Mean IC50 (IC50^8h), 8-h exposure 0–8 hr, 3D7-A10, survival at 60 h) was 7.63 µM. For the same molecule, the IC50 ([2]; 3D7, read-out: Early trophozoites Mean IC50 (IC50^8h), 8-h exposure 16–24 hr, 3D7-A10, survival at 60 h) was 2.13 µM, the IC50 ([2]; 3D7, read-out: Late rings Mean IC50 (IC50^8h), 8-h exposure 8–16 hr, 3D7-A10, survival at 60 h) was 4.87 µM and the IC50 ([2]; 3D7, read-out: Late trophozoites Mean IC50 (IC50^8h), 8-h exposure 24–32 hr, 3D7-A10, survival at 60 h) was 2.53 µM. For the same molecule, the IC50 ([2]; 3D7, read-out: Schizonts Mean IC50 (IC50^8h), 8-h exposure 32–40 hr, 3D7-A10, survival at 60 h) was 3.37 µM, the “peptide levels (hemoglobin catabolism signature)” value ([3]; 10 × IC50^72h, 2.5 hr, trophozoites) was “decreased peptide levels” and the “Log2(fold changes) 3-phosphoglycerate” value ([3]; metabolite 3-phosphoglycerate, log2 fold change) was -0.2221. The “Log2(fold changes) 4-Pyridoxic acid” value ([3]; metabolite 4-Pyridoxic acid, log2 fold change) was 0.0000, the “Log2(fold changes) 4-aminobutyrate” value ([3]; metabolite 4-aminobutyrate, log2 fold change) was -1.1535 and the “Log2(fold changes) 4-phosphopantetheine” value ([3]; metabolite 4-phosphopantetheine, log2 fold change) was 0.0000. For the same molecule, the “Log2(fold changes) 4-phosphopantothenate” value ([3]; metabolite 4-phosphopantothenate, log2 fold change) was -2.5840, the “Log2(fold changes) 5-aminopentanoic acid” value ([3]; metabolite 5-aminopentanoic acid, log2 fold change) was 0.0000 and the “Log2(fold changes) 5-methyl-THF” value ([3]; metabolite 5-methyl-THF, log2 fold change) was 0.0000. The “Log2(fold changes) 5-phosphoribosyl-1-pyrophosphate” value ([3]; metabolite 5-phosphoribosyl-1-pyrophosphate, log2 fold change) was -3.8277, the “Log2(fold changes) 6-phospho-D-gluconate” value ([3]; metabolite 6-phospho-D-gluconate, log2 fold change) was -1.2363 and the “Log2(fold change) HVDD” value ([3]; metabolite HVDD) was -6.0354. For the same molecule, the “Log2(fold change) Hydroxyisocaproic acid” value ([3]; metabolite Hydroxyisocaproic acid) was 0.0000, the “Log2(fold change) IDP” value ([3]; metabolite IDP) was 0.0000 and the “Log2(fold change) IMP” value ([3]; metabolite IMP) was -1.9723. The “Log2(fold change) Inositol” value ([3]; metabolite Inositol) was 0.0000, the “Log2(fold change) Isopentyl-PP” value ([3]; metabolite Isopentyl-PP) was 0.0000 and the “Log2(fold change) L-arginino-succinate” value ([3]; metabolite L-arginino-succinate) was 0.0000. For the same molecule, the “Log2(fold change) LD” value ([3]; metabolite LD) was 0.0000, the “Log2(fold change) Myristoyl/tetradecanoyl-CoA” value ([3]; metabolite Myristoyl/tetradecanoyl-CoA) was 0.0000 and the “Log2(fold change) N-Acetyl-L-alanine” value ([3]; metabolite N-Acetyl-L-alanine) was -4.1046. For the same molecule, the “Log2(fold change) N-acetyl-L-ornithine” value ([3]; metabolite N-acetyl-L-ornithine) was -4.9077, the “Log2(fold change) N-acetyl-glucosamine-1/6-phosphate” value ([3]; metabolite N-acetyl-glucosamine-1/6-phosphate) was -2.7078 and the “Log2(fold change) N-acetyl-glutamate” value ([3]; metabolite N-acetyl-glutamate) was -2.2943. For the same molecule, the “Log2(fold change) N-acetyl-glutamine” value ([3]; metabolite N-acetyl-glutamine) was 0.0000, the “Log2(fold change) N-carbamoyl-L-aspartate” value ([3]; metabolite N-carbamoyl-L-aspartate) was -4.4049 and the “Log2(fold change) NAD+” value ([3]; metabolite NAD+) was 0.0000. For the same molecule, the “Log2(fold change) NADH” value ([3]; metabolite NADH) was 0.4682, the “Log2(fold change) NADP+” value ([3]; metabolite NADP+) was -1.0797 and the “Log2(fold change) NADPH” value ([3]; metabolite NADPH) was -1.0955. For the same molecule, the “Log2(fold change) O-acetyl-L-serine” value ([3]; metabolite O-acetyl-L-serine) was 0.0000, the “Log2(fold change) Octoluse 8/1P” value ([3]; metabolite Octoluse 8/1P) was 0.0000 and the “Log2(fold change) Octoluse Bisphosphate” value ([3]; metabolite Octoluse Bisphosphate) was -0.1243. For the same molecule, the “Log2(fold change) PD” value ([3]; metabolite PD) was -4.6260, the “Log2(fold change) PE” value ([3]; metabolite PE) was -5.1379 and the “Log2(fold change) PEE” value ([3]; metabolite PEE) was -4.6436. For the same molecule, the “Log2(fold change) PEEK” value ([3]; metabolite PEEK) was 0.0000, the “Log2(fold change) PVNF” value ([3]; metabolite PVNF) was -7.1540 and the “Log2(fold change) Pyroglutamic acid” value ([3]; metabolite Pyroglutamic acid) was 0.0000. The “Log2(fold change) Pyrophosphate” value ([3]; metabolite Pyrophosphate) was 0.0000, the “Log2(fold change) Ribose-5-phosphate” value ([3]; metabolite Ribose-5-phosphate) was -2.7334 and the “Log2(fold change) S-adenosyl-L-homocysteine” value ([3]; metabolite S-adenosyl-L-homocysteine) was -2.8781. For the same molecule, the “Log2(fold change) S-adenosyl-L-methioninamine” value ([3]; metabolite S-adenosyl-L-methioninamine) was 0.0000, the “Log2(fold change) S-adenosyl-L-methionine” value ([3]; metabolite S-adenosyl-L-methionine) was 0.0000 and the “Log2(fold change) S-methyl-5'-thioadenosine” value ([3]; metabolite S-methyl-5'-thioadenosine) was 0.0000. The “Log2(fold change) SD” value ([3]; metabolite SD) was -2.2622, the “Log2(fold change) SDL” value ([3]; metabolite SDL) was 0.0000 and the “Log2(fold change) SID” value ([3]; metabolite SID) was -5.7557. For the same molecule, the “Log2(fold change) Sedoheptulose bisphosphate” value ([3]; metabolite Sedoheptulose bisphosphate) was -0.2613, the “Log2(fold change) Thiamine pyrophosphate” value ([3]; metabolite Thiamine pyrophosphate) was 0.0000 and the “Log2(fold changes) UDP-D-glucose” value ([3]; metabolite UDP-D-glucose, log2 fold change) was -0.2797. For the same molecule, the “Log2(fold changes) UDP-D-glucuronate” value ([3]; metabolite UDP-D-glucuronate, log2 fold change) was -0.6750, the “Log2(fold changes) UDP-N-acetyl-glucosamine” value ([3]; metabolite UDP-N-acetyl-glucosamine, log2 fold change) was -0.7739 and the “Log2(fold changes) UDP” value ([3]; metabolite UDP, log2 fold change) was -2.1596. The “Log2(fold changes) UMP” value ([3]; metabolite UMP, log2 fold change) was -1.4504, the “Log2(fold changes) UTP” value ([3]; metabolite UTP, log2 fold change) was -1.2572 and the “Log2(fold change) hydroxyphenylpyruvate” value ([3]; metabolite hydroxyphenylpyruvate) was 0.0000. The “Log2(fold change) hydroxyproline/Aminolevulinate” value ([3]; metabolite hydroxyproline/Aminolevulinate) was -0.1426, the “Log2(fold change) hypoxanthine” value ([3]; metabolite hypoxanthine) was 0.3419 and the “Log2(fold change) indole” value ([3]; metabolite indole) was 0.0000. The “Log2(fold change) inosine” value ([3]; metabolite inosine) was -0.5164, the “Log2(fold change) isoleucine” value ([3]; metabolite isoleucine) was 0.2629 and the “Log2(fold change) lactate” value ([3]; metabolite lactate) was -0.9550. The “Log2(fold change) leucine” value ([3]; metabolite leucine) was 0.0229, the “Log2(fold change) lysine” value ([3]; metabolite lysine) was 0.0000 and the “Log2(fold change) malate” value ([3]; metabolite malate) was -1.9880. The “Log2(fold change) maleic acid” value ([3]; metabolite maleic acid) was -2.0576, the “Log2(fold change) methionine” value ([3]; metabolite methionine) was 0.4668 and the “Log2(fold change) myo-inositol” value ([3]; metabolite myo-inositol) was 0.0000. The “Log2(fold change) nicotinamide mononucleotide” value ([3]; metabolite nicotinamide mononucleotide) was 0.0000, the “Log2(fold change) nicotinate” value ([3]; metabolite nicotinate) was -0.5789 and the “Log2(fold change) ornithine” value ([3]; metabolite ornithine) was 0.0000. The “Log2(fold change) orotate” value ([3]; metabolite orotate) was -1.4233, the “Log2(fold change) orotidine-5'-phosphate” value ([3]; metabolite orotidine-5'-phosphate) was -3.1182 and the “Log2(fold change) oxaloacetate” value ([3]; metabolite oxaloacetate) was 0.0000. The “Log2(fold change) p-aminobenzoate” value ([3]; metabolite p-aminobenzoate) was 0.0000, the “Log2(fold change) p-hydroxybenzoate” value ([3]; metabolite p-hydroxybenzoate) was 0.0000 and the “Log2(fold change) pantothenate” value ([3]; metabolite pantothenate) was -0.7783. For the same molecule, the “Log2(fold change) phenylalanine” value ([3]; metabolite phenylalanine) was -0.1127, the “Log2(fold change) phenylpyruvate” value ([3]; metabolite phenylpyruvate) was 0.0000 and the “Log2(fold change) phosphoenolpyruvate” value ([3]; metabolite phosphoenolpyruvate) was 0.1262. The “Log2(fold change) prephenate” value ([3]; metabolite prephenate) was 0.0000, the “Log2(fold change) proline” value ([3]; metabolite proline) was -0.3073 and the “Log2(fold change) pyridoxine” value ([3]; metabolite pyridoxine) was 0.2157. For the same molecule, the “Log2(fold change) pyruvate” value ([3]; metabolite pyruvate) was -1.6686, the “Log2(fold change) riboflavin” value ([3]; metabolite riboflavin) was 0.0000 and the “Log2(fold change) ribose” value ([3]; metabolite ribose) was 0.4922. For the same molecule, the “Log2(fold change) ribose-phosphate” value ([3]; metabolite ribose-phosphate) was -2.5305, the “Log2(fold change) ribulose-5-phosphate” value ([3]; metabolite ribulose-5-phosphate) was -2.3648 and the “Log2(fold change) serine” value ([3]; metabolite serine) was -0.3911. For the same molecule, the “Log2(fold change) sn-glycerol-3-phosphate” value ([3]; metabolite sn-glycerol-3-phosphate) was -0.4279, the “Log2(fold change) succinate/Methylmalonic acid” value ([3]; metabolite succinate/Methylmalonic acid) was -3.0813 and the “Log2(fold change) succinyl-CoA/methylmalonyl-CoA” value ([3]; metabolite succinyl-CoA/methylmalonyl-CoA) was -1.6128. For the same molecule, the “Log2(fold change) taurine” value ([3]; metabolite taurine) was 0.0000, the “Log2(fold change) thiamine” value ([3]; metabolite thiamine) was 0.0000 and the “Log2(fold change) threonine/homoserine” value ([3]; metabolite threonine/homoserine) was -0.6870. For the same molecule, the “Log2(fold change) thymidine” value ([3]; metabolite thymidine) was 0.0000, the “Log2(fold changes) thymine” value ([3]; metabolite thymine, log2 fold change) was 0.0000 and the “Log2(fold changes) trehalose-6-Phosphate” value ([3]; metabolite trehalose-6-Phosphate, log2 fold change) was 0.0000. The “Log2(fold changes) tryptophan” value ([3]; metabolite tryptophan, log2 fold change) was 0.1771, the “Log2(fold changes) tyrosine” value ([3]; metabolite tyrosine, log2 fold change) was -0.0043 and the “Log2(fold changes) uridine” value ([3]; metabolite uridine, log2 fold change) was 0.0000.

Source: paper PMC7031696 (Cell chemical biology, 2019)
